Experimental data from the kinase profiling compilation of Christmann-Franck et al. (2016).
Values joined by “and” are separate entries in the source; they are usually repeats but may differ in a detail not shown here. Identical values can stand only once.

What was measured:
Experiment in all cases: radiometric filter-binding kinase assay, Kinase HotSpot
Conditions in all cases: compound 0.5 µM; ATP 10 µM
GRK4 (human) = GRK4 (human) (UniProt P32298)
MAP3K3 (human) = MAP3K3 (human) (UniProt Q99759)
PRKCH (human) = PRKCH (human) (UniProt P24723)
PBK (human) = PBK (human) (UniProt Q96KB5)
PLK1 (human) = PLK1 (human) (UniProt P53350)
MET (human) = MET (human) (UniProt P08581)
MAPKAPK5 (human) = MAPKAPK5 (human) (UniProt Q8IW41)
EPHA1 (human) = EPHA1 (human) (UniProt P21709)
HCK (human) = HCK (human) (UniProt P08631)
AURKA (human) = AURKA (human) (UniProt O14965)
WNK2 (human) = WNK2 (human) (UniProt Q9Y3S1)
NEK11 (human) = NEK11 (human) (UniProt Q8NG66)
MARK2 (human) = MARK2 (human) (UniProt Q7KZI7)
TBK1 (human) = TBK1 (human) (UniProt Q9UHD2)
CLK1 (human) = CLK1 (human) (UniProt P49759)
NTRK3 (human) = NTRK3 (human) (UniProt Q16288)
LYN (human) = LYN (human) (UniProt P07948)
YES1 (human) = YES1 (human) (UniProt P07947)
PRKCZ (human) = PRKCZ (human) (UniProt Q05513)
MAPK8 (human) = MAPK8 (human) (UniProt P45983)
CDK2 CCNE1 (human) = CDK2 CCNE1 (human) (UniProt P24941+P24864)
CSNK2A1 (human) = CSNK2A1 (human) (UniProt P68400)
FLT1 (human) = FLT1 (human) (UniProt P17948)
RPS6KA4 KD2 (human) = RPS6KA4 KD2 (human) (UniProt O75676)
CAMKK2 (human) = CAMKK2 (human) (UniProt Q96RR4)
PRKCA (human) = PRKCA (human) (UniProt P17252)
CDK6 CCND3 (human) = CDK6 CCND3 (human) (UniProt P30281+Q00534)
PAK3 (human) = PAK3 (human) (UniProt O75914)
FYN (human) = FYN (human) (UniProt P06241)
MAPK3 (human) = MAPK3 (human) (UniProt P27361)
FGFR3 (human) = FGFR3 (human) (UniProt P22607)
NEK1 (human) = NEK1 (human) (UniProt Q96PY6)
CDC42BPA (human) = CDC42BPA (human) (UniProt Q5VT25)
DYRK1B (human) = DYRK1B (human) (UniProt Q9Y463)
SIK2 (human) = SIK2 (human) (UniProt Q9H0K1)
GRK7 (human) = GRK7 (human) (UniProt Q8WTQ7)
PRKCB2 (human) = PRKCB2 (human) (UniProt P05771)
EPHA3 (human) = EPHA3 (human) (UniProt P29320)
PTK2B (human) = PTK2B (human) (UniProt Q14289)
CAMK4 (human) = CAMK4 (human) (UniProt Q16566)
CHEK1 (human) = CHEK1 (human) (UniProt O14757)
DCLK2 (human) = DCLK2 (human) (UniProt Q8N568)

Chain of MET (human) (P08581 whole entry, looked up): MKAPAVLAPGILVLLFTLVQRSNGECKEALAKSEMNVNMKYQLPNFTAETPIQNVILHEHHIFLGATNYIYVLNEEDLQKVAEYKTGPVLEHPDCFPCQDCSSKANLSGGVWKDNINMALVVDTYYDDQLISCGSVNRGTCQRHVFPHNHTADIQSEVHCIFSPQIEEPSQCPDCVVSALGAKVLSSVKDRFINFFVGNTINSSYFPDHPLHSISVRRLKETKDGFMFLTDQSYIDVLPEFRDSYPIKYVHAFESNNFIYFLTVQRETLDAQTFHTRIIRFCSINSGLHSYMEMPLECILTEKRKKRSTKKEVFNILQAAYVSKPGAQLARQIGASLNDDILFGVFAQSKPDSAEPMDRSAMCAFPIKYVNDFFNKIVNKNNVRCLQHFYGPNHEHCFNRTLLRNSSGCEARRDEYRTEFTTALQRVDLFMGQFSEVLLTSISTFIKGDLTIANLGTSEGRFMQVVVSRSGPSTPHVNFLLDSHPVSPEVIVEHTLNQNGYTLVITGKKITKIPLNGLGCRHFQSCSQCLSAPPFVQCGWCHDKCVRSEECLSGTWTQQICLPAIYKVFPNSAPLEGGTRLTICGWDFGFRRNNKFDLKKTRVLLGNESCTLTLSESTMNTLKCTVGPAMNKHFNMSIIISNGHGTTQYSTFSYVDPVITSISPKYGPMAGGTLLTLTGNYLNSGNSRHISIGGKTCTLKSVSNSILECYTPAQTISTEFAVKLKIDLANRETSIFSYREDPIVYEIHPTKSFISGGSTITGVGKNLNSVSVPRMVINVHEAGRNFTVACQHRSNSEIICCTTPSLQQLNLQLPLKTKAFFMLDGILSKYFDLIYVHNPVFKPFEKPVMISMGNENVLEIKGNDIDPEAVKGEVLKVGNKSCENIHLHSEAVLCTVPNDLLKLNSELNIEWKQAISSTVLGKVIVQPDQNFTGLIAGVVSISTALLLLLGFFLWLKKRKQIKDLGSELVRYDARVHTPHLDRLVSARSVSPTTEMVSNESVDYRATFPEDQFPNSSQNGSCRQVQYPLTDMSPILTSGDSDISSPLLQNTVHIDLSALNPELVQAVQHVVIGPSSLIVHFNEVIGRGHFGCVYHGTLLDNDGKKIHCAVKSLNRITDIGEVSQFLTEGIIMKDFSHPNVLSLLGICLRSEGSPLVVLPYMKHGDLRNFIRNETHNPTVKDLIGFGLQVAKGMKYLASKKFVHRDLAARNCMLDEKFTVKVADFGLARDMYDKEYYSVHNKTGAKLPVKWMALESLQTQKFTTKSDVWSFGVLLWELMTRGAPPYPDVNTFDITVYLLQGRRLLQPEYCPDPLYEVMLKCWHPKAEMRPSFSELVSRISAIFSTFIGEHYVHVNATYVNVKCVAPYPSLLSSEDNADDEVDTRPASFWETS
Chain of GRK4 (human) (P32298 whole entry, looked up): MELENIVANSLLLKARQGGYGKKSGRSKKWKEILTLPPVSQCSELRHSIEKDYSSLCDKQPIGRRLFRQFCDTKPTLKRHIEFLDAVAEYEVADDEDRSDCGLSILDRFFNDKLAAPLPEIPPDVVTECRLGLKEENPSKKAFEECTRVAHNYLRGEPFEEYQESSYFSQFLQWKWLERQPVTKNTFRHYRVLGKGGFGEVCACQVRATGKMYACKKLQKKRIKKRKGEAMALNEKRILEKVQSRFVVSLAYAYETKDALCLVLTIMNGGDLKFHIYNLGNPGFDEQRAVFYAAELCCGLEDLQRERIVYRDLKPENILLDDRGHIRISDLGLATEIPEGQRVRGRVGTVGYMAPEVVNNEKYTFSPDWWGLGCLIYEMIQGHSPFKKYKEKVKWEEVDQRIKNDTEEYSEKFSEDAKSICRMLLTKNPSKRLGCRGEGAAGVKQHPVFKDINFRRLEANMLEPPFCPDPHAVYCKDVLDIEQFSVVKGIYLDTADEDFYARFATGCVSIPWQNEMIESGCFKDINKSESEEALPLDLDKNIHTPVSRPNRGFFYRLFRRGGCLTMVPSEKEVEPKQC
Chain of GRK7 (human) (Q8WTQ7 whole entry, looked up): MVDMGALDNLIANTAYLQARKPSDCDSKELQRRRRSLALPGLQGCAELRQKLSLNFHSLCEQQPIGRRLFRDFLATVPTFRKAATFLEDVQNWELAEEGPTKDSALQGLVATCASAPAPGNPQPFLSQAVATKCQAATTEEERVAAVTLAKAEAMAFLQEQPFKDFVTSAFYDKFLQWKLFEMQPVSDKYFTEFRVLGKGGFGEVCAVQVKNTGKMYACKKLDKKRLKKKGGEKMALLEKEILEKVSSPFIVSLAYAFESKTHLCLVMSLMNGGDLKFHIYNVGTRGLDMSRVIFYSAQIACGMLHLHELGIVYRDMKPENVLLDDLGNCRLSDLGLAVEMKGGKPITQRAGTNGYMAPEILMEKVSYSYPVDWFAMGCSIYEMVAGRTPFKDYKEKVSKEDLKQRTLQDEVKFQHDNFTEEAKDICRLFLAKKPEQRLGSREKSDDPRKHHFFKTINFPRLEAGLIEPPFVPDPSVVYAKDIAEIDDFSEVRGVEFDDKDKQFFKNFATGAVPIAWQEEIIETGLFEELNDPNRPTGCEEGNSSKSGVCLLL
Chain of PRKCZ (human) (Q05513 whole entry, looked up): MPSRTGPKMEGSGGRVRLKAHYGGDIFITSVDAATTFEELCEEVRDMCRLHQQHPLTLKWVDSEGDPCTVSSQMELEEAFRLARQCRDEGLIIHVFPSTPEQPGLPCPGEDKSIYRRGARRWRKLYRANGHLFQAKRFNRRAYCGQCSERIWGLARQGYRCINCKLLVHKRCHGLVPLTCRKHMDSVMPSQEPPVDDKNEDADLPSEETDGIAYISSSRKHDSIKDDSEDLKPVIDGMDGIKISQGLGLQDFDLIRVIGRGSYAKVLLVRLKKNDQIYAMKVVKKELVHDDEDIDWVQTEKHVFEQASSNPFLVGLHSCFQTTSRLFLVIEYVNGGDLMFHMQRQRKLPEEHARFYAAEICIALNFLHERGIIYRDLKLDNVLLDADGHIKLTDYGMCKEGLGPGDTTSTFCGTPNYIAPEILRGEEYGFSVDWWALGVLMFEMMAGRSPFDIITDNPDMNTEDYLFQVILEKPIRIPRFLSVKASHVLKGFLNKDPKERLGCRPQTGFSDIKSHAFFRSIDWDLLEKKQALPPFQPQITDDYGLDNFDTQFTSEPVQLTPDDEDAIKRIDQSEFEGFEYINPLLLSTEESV
Chain of CLK1 (human) (P49759 whole entry, looked up): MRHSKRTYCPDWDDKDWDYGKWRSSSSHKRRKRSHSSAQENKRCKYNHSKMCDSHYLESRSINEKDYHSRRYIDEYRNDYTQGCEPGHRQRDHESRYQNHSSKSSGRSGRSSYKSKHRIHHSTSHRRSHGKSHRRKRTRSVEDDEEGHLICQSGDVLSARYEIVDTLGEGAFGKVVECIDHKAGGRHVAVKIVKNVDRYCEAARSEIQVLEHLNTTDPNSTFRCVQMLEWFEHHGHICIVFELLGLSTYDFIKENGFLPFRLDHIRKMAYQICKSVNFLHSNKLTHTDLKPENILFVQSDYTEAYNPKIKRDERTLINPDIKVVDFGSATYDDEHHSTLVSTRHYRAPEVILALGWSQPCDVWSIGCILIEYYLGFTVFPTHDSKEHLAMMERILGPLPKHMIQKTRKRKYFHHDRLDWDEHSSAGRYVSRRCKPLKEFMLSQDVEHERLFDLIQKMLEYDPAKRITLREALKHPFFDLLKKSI
Chain of AURKA (human) (O14965 whole entry, looked up): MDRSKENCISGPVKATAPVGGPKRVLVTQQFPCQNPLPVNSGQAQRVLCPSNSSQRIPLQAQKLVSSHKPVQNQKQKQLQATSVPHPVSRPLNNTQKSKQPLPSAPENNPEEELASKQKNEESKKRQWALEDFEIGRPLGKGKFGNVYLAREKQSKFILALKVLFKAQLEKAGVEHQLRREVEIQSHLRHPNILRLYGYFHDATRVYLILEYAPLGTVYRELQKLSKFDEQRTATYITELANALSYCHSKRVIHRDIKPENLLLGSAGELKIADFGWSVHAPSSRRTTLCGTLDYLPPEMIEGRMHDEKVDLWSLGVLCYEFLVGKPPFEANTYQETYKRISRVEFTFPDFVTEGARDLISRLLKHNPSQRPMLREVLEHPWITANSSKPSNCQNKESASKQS
Chain of RPS6KA4 KD2 (human) (O75676 whole entry, looked up): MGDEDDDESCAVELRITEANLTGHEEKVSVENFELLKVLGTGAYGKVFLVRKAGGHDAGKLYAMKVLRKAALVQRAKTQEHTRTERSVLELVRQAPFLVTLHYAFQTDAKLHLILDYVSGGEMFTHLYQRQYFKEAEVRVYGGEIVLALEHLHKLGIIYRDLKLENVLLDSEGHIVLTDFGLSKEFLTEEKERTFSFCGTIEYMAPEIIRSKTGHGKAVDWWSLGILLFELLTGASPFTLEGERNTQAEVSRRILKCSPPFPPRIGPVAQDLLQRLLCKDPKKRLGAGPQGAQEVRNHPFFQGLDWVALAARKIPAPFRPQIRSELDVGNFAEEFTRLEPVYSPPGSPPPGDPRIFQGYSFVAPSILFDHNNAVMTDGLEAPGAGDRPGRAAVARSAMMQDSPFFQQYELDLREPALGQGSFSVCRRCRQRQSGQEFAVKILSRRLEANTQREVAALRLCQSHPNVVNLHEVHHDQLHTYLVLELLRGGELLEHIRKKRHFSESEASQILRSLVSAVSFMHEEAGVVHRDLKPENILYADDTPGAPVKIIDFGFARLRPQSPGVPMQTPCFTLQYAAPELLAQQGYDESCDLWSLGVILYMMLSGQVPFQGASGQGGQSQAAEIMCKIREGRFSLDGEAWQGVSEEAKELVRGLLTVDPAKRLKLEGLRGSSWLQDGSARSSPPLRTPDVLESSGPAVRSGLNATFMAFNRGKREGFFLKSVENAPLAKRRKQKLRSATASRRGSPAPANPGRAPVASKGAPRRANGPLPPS

## CCN(CC)CCCCN1c2ccccc2Oc2ccc(Cl)cc21
GRK4 (human)
  residual activity: 102%
MAP3K3 (human)
  residual activity: 103%
PRKCH (human)
  residual activity: 108%
PBK (human)
  residual activity: 105%
PLK1 (human)
  residual activity: 109%
MET (human)
  residual activity: 105%
MAPKAPK5 (human)
  residual activity: 95.9%
EPHA1 (human)
  residual activity: 90.5%
HCK (human)
  residual activity: 105%
AURKA (human)
  residual activity: 93.3%
WNK2 (human)
  residual activity: 119%
NEK11 (human)
  residual activity: 92%
MARK2 (human)
  residual activity: 86.1%
TBK1 (human)
  residual activity: 86.3%
CLK1 (human)
  residual activity: 110%
NTRK3 (human)
  residual activity: 103%
LYN (human)
  residual activity: 105% and 115%
YES1 (human)
  residual activity: 88.5%
PRKCZ (human)
  residual activity: 105%
MAPK8 (human)
  residual activity: 89.7%
CDK2 CCNE1 (human)
  residual activity: 89.4%
CSNK2A1 (human)
  residual activity: 96.2%
FLT1 (human)
  residual activity: 94.3%
RPS6KA4 KD2 (human)
  residual activity: 80.8%
CAMKK2 (human)
  residual activity: 105%
PRKCA (human)
  residual activity: 83%
CDK6 CCND3 (human)
  residual activity: 102%
PAK3 (human)
  residual activity: 116%
FYN (human)
  residual activity: 107%
MAPK3 (human)
  residual activity: 111%
FGFR3 (human)
  residual activity: 91.8%
NEK1 (human)
  residual activity: 101%
CDC42BPA (human)
  residual activity: 111%
DYRK1B (human)
  residual activity: 101%
SIK2 (human)
  residual activity: 111%
GRK7 (human)
  residual activity: 96.2%
PRKCB2 (human)
  residual activity: 102%
EPHA3 (human)
  residual activity: 101%
PTK2B (human)
  residual activity: 99.6%
CAMK4 (human)
  residual activity: 98.9%
CHEK1 (human)
  residual activity: 101%
DCLK2 (human)
  residual activity: 101%

## COc1ccc(OC)c2c(=S)c3ccccc3[nH]c12
GRK4 (human)
  residual activity: 103%
MAP3K3 (human)
  residual activity: 117%
PRKCH (human)
  residual activity: 86.2%
PBK (human)
  residual activity: 107%
PLK1 (human)
  residual activity: 93.6%
MET (human)
  residual activity: 99.2%
MAPKAPK5 (human)
  residual activity: 109%
EPHA1 (human)
  residual activity: 89%
HCK (human)
  residual activity: 95.8%
AURKA (human)
  residual activity: 116%
WNK2 (human)
  residual activity: 89.8%
NEK11 (human)
  residual activity: 130%
MARK2 (human)
  residual activity: 93.9%
TBK1 (human)
  residual activity: 97.5%
CLK1 (human)
  residual activity: 98.4%
NTRK3 (human)
  residual activity: 93.6%
LYN (human)
  residual activity: 106% and 96.9%
YES1 (human)
  residual activity: 89.2%
PRKCZ (human)
  residual activity: 99.4%
MAPK8 (human)
  residual activity: 96.8%
CDK2 CCNE1 (human)
  residual activity: 77.9%
CSNK2A1 (human)
  residual activity: 100%
FLT1 (human)
  residual activity: 101%
RPS6KA4 KD2 (human)
  residual activity: 93.5%
CAMKK2 (human)
  residual activity: 108%
PRKCA (human)
  residual activity: 95.7%
CDK6 CCND3 (human)
  residual activity: 102%
PAK3 (human)
  residual activity: 98%
FYN (human)
  residual activity: 101%
MAPK3 (human)
  residual activity: 103%
FGFR3 (human)
  residual activity: 94.9%
NEK1 (human)
  residual activity: 102%
CDC42BPA (human)
  residual activity: 82.7%
DYRK1B (human)
  residual activity: 107%
SIK2 (human)
  residual activity: 114%
GRK7 (human)
  residual activity: 102%
PRKCB2 (human)
  residual activity: 106%
EPHA3 (human)
  residual activity: 94.9%
PTK2B (human)
  residual activity: 92.7%
CAMK4 (human)
  residual activity: 101%
CHEK1 (human)
  residual activity: 92.7%
DCLK2 (human)
  residual activity: 94.6%

## CN(C)C[C@H]1CCn2c(c(C3=C(c4cn(C)c5ccccc45)C(=O)NC3=O)c3ccccc32)C1
GRK4 (human)
  residual activity: 76.4%
MAP3K3 (human)
  residual activity: 86.1%
PRKCH (human)
  residual activity: 7.84%
PBK (human)
  residual activity: 101%
PLK1 (human)
  residual activity: 102%
MET (human)
  residual activity: 96.2%
MAPKAPK5 (human)
  residual activity: 95.4%
EPHA1 (human)
  residual activity: 100%
HCK (human)
  residual activity: 95.3%
AURKA (human)
  residual activity: 87.7%
WNK2 (human)
  residual activity: 103%
NEK11 (human)
  residual activity: 74.1%
MARK2 (human)
  residual activity: 94.9%
TBK1 (human)
  residual activity: 91.4%
CLK1 (human)
  residual activity: 105%
NTRK3 (human)
  residual activity: 75%
LYN (human)
  residual activity: 100% and 98.3%
YES1 (human)
  residual activity: 95.3%
PRKCZ (human)
  residual activity: 31%
MAPK8 (human)
  residual activity: 100%
CDK2 CCNE1 (human)
  residual activity: 64.4%
CSNK2A1 (human)
  residual activity: 98.9%
FLT1 (human)
  residual activity: 91.3%
RPS6KA4 KD2 (human)
  residual activity: 33.3%
CAMKK2 (human)
  residual activity: 108%
PRKCA (human)
  residual activity: 2.58%
CDK6 CCND3 (human)
  residual activity: 95%
PAK3 (human)
  residual activity: 102%
FYN (human)
  residual activity: 92.8%
MAPK3 (human)
  residual activity: 102%
FGFR3 (human)
  residual activity: 96.3%
NEK1 (human)
  residual activity: 105%
CDC42BPA (human)
  residual activity: 98.1%
DYRK1B (human)
  residual activity: 92.2%
SIK2 (human)
  residual activity: 88.8%
GRK7 (human)
  residual activity: 40%
PRKCB2 (human)
  residual activity: 2.29%
EPHA3 (human)
  residual activity: 99.2%
PTK2B (human)
  residual activity: 95.5%
CAMK4 (human)
  residual activity: 95.5%
CHEK1 (human)
  residual activity: 69.8%
DCLK2 (human)
  residual activity: 97.8%
